This note sets out measurements from ChEMBL document CHEMBL1201862, “PubChem BioAssay data set” (2004).

The structures appear in SMILES notation.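 Following 48 hours of exposure in 96-well plates, responses at five concentrations were used to interpolate endpoints linearly. Here, GI50 denotes the concentration required for 50% inhibition of growth.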 The source made the active and inactive calls. No stated cut-off is given here; in the data, active = GI50 up to about 1.1 µM and inactive = higher.

Among the test systems are A549; SK-OV-3; MDA-MB-231; RXF 393; HCT-116; NCI-H460; NCI-H522; DU-145; HCT-15; LOX IMVI; Malme-3M; SR; HOP-92; OVCAR-3; MDA-MB-435; SK-MEL-5; SK-MEL-2; EKVX; SNB-19; M14.
Test in all cases: NCI anticancer screen, dose series, 48 h

For the compound `COc1ccc(C[C@H]2COC(=O)[C@@H]2Cc2ccc(Br)cc2)cc1OC`, the GI50 was 20 µM (inactive) in the experiment with A549; 22 µM (inactive) in the experiment with SK-OV-3; 24 µM (inactive) in the experiment on MDA-MB-231; 20 µM (inactive) with RXF 393; 19.1 µM (inactive) in the experiment with HCT-116; 33.4 µM (inactive) in the experiment on NCI-H460. For the same compound, the GI50 in the experiment on NCI-H522 is 13.7 µM (inactive); with DU-145 it was 16.8 µM (inactive); in the experiment with HCT-15, 17.3 µM; in the experiment on LOX IMVI, 11.2 µM (inactive); in the experiment with Malme-3M, 25.4 µM (inactive); with SR it was 20.7 µM (inactive). The GI50 in the experiment on HOP-92 was 20.2 µM (inactive); in the experiment on OVCAR-3, 15.2 µM (inactive); with MDA-MB-435, 19.5 µM (inactive); in the experiment with SK-MEL-5, 5.06 µM (inactive); with SK-MEL-2, 19.9 µM (inactive); with EKVX it was 7.19 µM (inactive). Further, the GI50 in the experiment with SNB-19 is 26.9 µM (inactive); in the experiment on M14 it was 33.3 µM (inactive).

For the compound `COc1ccccc1N1C(=O)/C(=C\c2cccc(Oc3ccccc3)c2)S(=O)(=O)C1c1ccccc1` (stereo not given), the GI50 with A549 is > 100 µM (inactive); in the experiment with SK-OV-3 it was > 100 µM (inactive); in the experiment with MDA-MB-231, > 100 µM (inactive); in the experiment with RXF 393, > 100 µM (inactive); in the experiment on HCT-116, 23.8 µM (inactive); with NCI-H460, 53.7 µM (inactive). The GI50 was 22.5 µM (inactive) with NCI-H522; 55.6 µM (inactive) with DU-145; 32.4 µM in the experiment with HCT-15; 40.1 µM (inactive) in the experiment on LOX IMVI; 69.3 µM (inactive) in the experiment on Malme-3M; 16.7 µM (inactive) with SR. In addition, the GI50 was 14.5 µM (inactive) in the experiment with HOP-92; 38.7 µM (inactive) in the experiment on OVCAR-3; 30.8 µM (inactive) in the experiment on MDA-MB-435; 21.5 µM (inactive) in the experiment on SK-MEL-5; 21.4 µM (inactive) in the experiment on SK-MEL-2; 10.5 µM (inactive) with EKVX. Also, the GI50 in the experiment with SNB-19 and in the experiment on M14 was 50 µM (inactive) each time.

For the compound `Cc1ccc(OCC2OC(n3cnc4c(Cl)nc(Nc5cc(Cl)cc(Cl)c5)nc43)CC2Oc2ccc(C)cc2)cc1` (stereo not given), the GI50 in the experiment with A549, with SK-OV-3, in the experiment with MDA-MB-231, in the experiment with RXF 393, with HCT-116 and with NCI-H460 was > 100 µM (inactive) in each case. Moreover, the GI50 in the experiment with NCI-H522 was > 100 µM (inactive); with DU-145, > 100 µM (inactive); in the experiment on HCT-15, above 100 µM; in the experiment with LOX IMVI it was > 100 µM (inactive); with Malme-3M it was > 100 µM (inactive); with SR it was > 100 µM (inactive). In addition, the GI50 with HOP-92, with OVCAR-3, with MDA-MB-435, in the experiment on SK-MEL-5, with SK-MEL-2 and in the experiment on EKVX was > 100 µM (inactive) each time. Further, the GI50 in the experiment with SNB-19 and in the experiment on M14 was > 100 µM (inactive) each time.

On to `Cc1cc(Cl)ccc1Nc1nc2c(s1)C(=O)c1ccccc1C2=O`, for which the GI50 in the experiment on A549 is 4.59 µM (inactive); with SK-OV-3 it was 8.49 µM (inactive); with MDA-MB-231, 1.3 µM (inactive); with RXF 393, 7.28 µM (inactive); in the experiment on HCT-116, 2.12 µM (inactive); in the experiment with NCI-H460, 3.32 µM (inactive). Also, the GI50 in the experiment on NCI-H522 is 1.99 µM (inactive); in the experiment on DU-145 it was 1.68 µM (inactive); in the experiment on HCT-15 it was 1.85 µM; in the experiment on LOX IMVI it was 1.53 µM (inactive); in the experiment on Malme-3M it was 1.45 µM (inactive); in the experiment with SR, 2.8 µM (inactive). Further, the GI50 was 13.9 µM (inactive) in the experiment with HOP-92; 1.43 µM (inactive) in the experiment on OVCAR-3; 0.378 µM (active) in the experiment on MDA-MB-435; 1.82 µM (inactive) in the experiment with SK-MEL-5; 8.45 µM (inactive) in the experiment with SK-MEL-2; 9.04 µM (inactive) with EKVX. The GI50 in the experiment on SNB-19 is 4.75 µM (inactive); in the experiment on M14 it was 0.948 µM (active).
